From patent US5658501A, “Substituted naphthopyrans” (Transitions Optical, Inc., priority 1995, dated 1997) come the findings set out here.

A short description of data set [1]: lambda max of the activated (colored) form in the visible spectrum. It counts as physicochemical. Particulars: activated form in a diethylene glycol bis(allyl carbonate) composition. As to the method:
The Δ OD/Min, which represents the sensitivity of the photochromic compound's response to UV light, was measured over the first five (5) seconds of UV exposure, then expressed on a per minute basis. The saturation optical density (OD) was taken under identical conditions as the Δ OD/Min, except UV exposure was continued for 20 minutes for the examples in Table 1. The lambda max reported in Table 1 is the wavelength in the visible spectrum at which the maximum absorption of the activated (colored) form of the photochromic compound in a diethylene glycol bis(allyl carbonate) composition occurs. The Bleach Rate (T 1/2) is the time interval in seconds for the absorbance of the activated form of the naphthopyran in the test squares to reach one half the highest absorbance at room temperature (75° F., 23.9° C.) after removal of the source of activating light.

Data set [2] can be described thus: photochromic response rates on an optical bench (test squares). The format is physicochemical. Particulars: for ΔOD @ SATURATION: UV exposure continued for 20 minutes, same test squares; for ΔOD @ SATURATION / ΔOD/MIN SENSITIVITY: 75° F. (23.9° C.); for ΔOD/MIN SENSITIVITY: measured over first five seconds of UV exposure, expressed per minute, 1.5 x 10^-3 molal in BPA 2EO DMA / poly(ethyleneglycol) 600 dimethacrylate polymer; for Bleach Rate (T1/2): time for absorbance of activated form to reach one half the highest absorbance, room temperature (75° F., 23.9° C.), after removal of activating light. As to the method: Testing was done with the photochromic naphthopyrans of the Examples incorporated into polymeric samples by the following method. The quantity of naphthopyran calculated to yield a 1.5 time 10^-3 molal solution was added to a flask containing 50 grams of a monomer blend of 4 parts ethoxylated bisphenol A dimethacrylate (BPA 2EO DMA), 1 part poly(ethyleneglycol) 600 dimethacrylate, and 0.033 weight percent 2,2'-azobis (2-methyl propionitrile) (AIBN). The naphthopyran was dissolved into the monomer blend by stirring and gentle heating, if necessary. After a clear solution was obtained, it was poured into a flat sheet mold having the interior dimensions of 2.2 mm×6 inches (15.24 cm)×6 inches (15.24 cm). The mold was sealed and placed in a horizontal air flow, programmable oven set to increase the temperature from 40° C. to 95° C. over a 5 hour interval, hold the temperature at 95° C. for 3 hours and then lower it to 60° C. for at least 2 hours before the end of the curing cycle. After the mold was opened, the polymer sheet was cut using a diamond blade saw into 2 inch (5.1 centimeters) test squares.
The photochromic test squares prepared in Part A were tested for photochromic response rates on an optical bench. […] The bench was fitted with a 150 watt Xenon arc lamp, a remote controlled shutter, a copper sulfate bath acting as a heat sink for the arc lamp, a Schott WG-320 nm cut-off filter which removes short wavelength radiation; neutral density filter(s) and a sample holder in which the square to be tested was inserted. A collimated beam of light from a tungsten lamp was passed through the square at a small angle normal to the square. After passing through the square, the light from the tungsten lamp was directed through a photopic filter attached to a detector. The photopic filter passes wavelengths such that the detector mimics the response of the human eye. The output signals from the detector(s) were processed by a radiometer.
Change in optical density (ΔOD) was determined by inserting a test square in the bleached state into the sample holder, adjusting the transmittance scale to 100%, opening the shutter from the Xenon lamp to provide ultraviolet radiation to change the test square from the bleached state to an activated (i.e., darkened) state, measuring the transmittance in the activated state; and calculating the change in optical density according to the formula Δ OD=log(100/%Ta) where %Ta is the percent transmittance in the activated state and the logarithm is to the base 10.
The Δ OD/Min, which represents the sensitivity of the photochromic compound's response to UV light, was measured over the first five (5) seconds of UV exposure, then expressed on a per minute basis. The saturation optical density (OD) was taken under identical conditions as the Δ OD/Min, except UV exposure was continued for 20 minutes for the examples in Table 1. The lambda max reported in Table 1 is the wavelength in the visible spectrum at which the maximum absorption of the activated (colored) form of the photochromic compound in a diethylene glycol bis(allyl carbonate) composition occurs.

Some results are limits rather than exact numbers.

Take `CC(=O)Oc1c(Sc2ccccc2)c2c(c3ccccc13)OC1(C=C2)C2CC3CC(C2)CC1C3` (centres unmarked) [Example 8, 2,2'-spiroadamantylene-5-phenylthio-6-acetoxy-2H-naphtho[1,2-b]pyran]: the “LAMBDA MAX (VISIBLE)” value in data set [1] is 459 nm. For the same compound, in data set [2], the “ΔOD @ SATURATION” value is 0.04, the “ΔOD/MIN SENSITIVITY” value is reported as 0.10 ΔOD/MIN and the “Bleach Rate (T1/2)” value amounted to 1.13 min.

On to `COc1ccc(C2(c3ccc(OC)cc3)C=Cc3c(-c4cccn4C)c(OC(C)=O)c4ccccc4c3O2)cc1` [Example 1, 2,2-bis(4-methoxyphenyl)-5-(N-methylpyrrol-2-yl)-6-acetoxy-2H-naphtho[1,2-b]pyran], for which, in data set [1], the “LAMBDA MAX (VISIBLE)” value is reported as 513 nm. In addition, in data set [2], the “ΔOD @ SATURATION” value is 0.25, the “ΔOD/MIN SENSITIVITY” value is 0.16 ΔOD/MIN and the “Bleach Rate (T1/2)” value turned out to be 1.23 min.

Turning to `COc1ccc(C2(c3ccc(OC)cc3)C=Cc3c(C(O)(c4ccccc4)c4ccccc4)c(O)c4ccccc4c3O2)cc1` [Example 10, 2,2-bis (4-methoxyphenyl)-5-diphenylmethylol-6-hydroxy-2H-naphtho[1,2-b]pyran], the “LAMBDA MAX (VISIBLE)” value in data set [1] worked out at 482 nm. Besides, in data set [2], the “ΔOD @ SATURATION” value came to 0.32, the “ΔOD/MIN SENSITIVITY” value is given as 0.05 ΔOD/MIN and the “Bleach Rate (T1/2)” value is > 13.3 min.

For the compound `COc1c(C)c2c(c3ccccc13)OC1(C=C2)C2CC3CC(C2)CC1C3` (centres unmarked) [Example 9, 2,2'-spiroadamantylene-5-methyl-6-methoxy-2H-naphtho[1,2-b]pyran], the “LAMBDA MAX (VISIBLE)” value in data set [1] amounted to 462 nm. For the same compound, in data set [2], the “ΔOD @ SATURATION” value is recorded as 0.17, the “ΔOD/MIN SENSITIVITY” value is 0.12 ΔOD/MIN and the “Bleach Rate (T1/2)” value came out at 2.55 min.

Regarding `COc1ccc(C2(c3ccc(OC)cc3)C=Cc3c(Sc4ccccc4)c(O)c4ccccc4c3O2)cc1` [Example 3, 2,2-bis(4-methoxyphenyl)-5-phenylthio-6-hydroxy-2H-naphtho[1,2-b]pyran], the “LAMBDA MAX (VISIBLE)” value in data set [1] is 516 nm. For the same compound, in data set [2], the “ΔOD @ SATURATION” value came to 1.76, the “ΔOD/MIN SENSITIVITY” value was 0.34 ΔOD/MIN and the “Bleach Rate (T1/2)” value was > 10 min.

`COc1ccc(C2(c3ccc(OC)cc3)C=Cc3c(Sc4ccccc4)c(OC(C)=O)c4ccccc4c3O2)cc1` [Example 4, 2,2-bis(4-methoxyphenyl)-5-phenylthio-6-acetoxy-2H-naphtho[1,2-b]pyran]: the “LAMBDA MAX (VISIBLE)” value in data set [1] is 516 nm. Also, in data set [2], the “ΔOD @ SATURATION” value amounted to 0.23, the “ΔOD/MIN SENSITIVITY” value is 0.22 ΔOD/MIN and the “Bleach Rate (T1/2)” value was determined as 0.7 min.

`COc1ccc(C2(c3ccc(OC)cc3)C=Cc3c(-c4ccc(OC)cc4OC)c(OC(C)=O)c4ccccc4c3O2)cc1` [Example 2, 2,2-bis(4-methoxyphenyl)-5-(2,4-dimethoxyphenyl)-6-acetoxy-2H-naphtho[1,2-b]pyran]: the “LAMBDA MAX (VISIBLE)” value in data set [1] came out at 511 nm. In data set [2], the “ΔOD @ SATURATION” value turned out to be 0.55, the “ΔOD/MIN SENSITIVITY” value is listed as 0.15 ΔOD/MIN and the “Bleach Rate (T1/2)” value was determined as 4.13 min.

Turning to `Oc1c(Sc2ccccc2)c2c(c3ccccc13)OC1(C=C2)C2CC3CC(C2)CC1C3` (centres unmarked) [Example 7, 2,2'-spiroadamantylene-5-phenylthio-6-hydroxy-2H-naphtho[1,2-b]pyran], the “LAMBDA MAX (VISIBLE)” value in data set [1] stood at 462 nm. In data set [2], the “ΔOD @ SATURATION” value came to 0.47, the “ΔOD/MIN SENSITIVITY” value is 0.15 ΔOD/MIN and the “Bleach Rate (T1/2)” value amounted to 3.08 min.

In the case of `COc1ccc(C2(c3ccc(OC)cc3)C=Cc3c(C)c(OC(C)=O)c4ccccc4c3O2)cc1` [Example 6, 2,2-bis(4-methoxyphenyl)-5-methyl-6-acetoxy-2H-naphtho[1,2-b]pyran], the “LAMBDA MAX (VISIBLE)” value in data set [1] is listed as 506 nm. Also, in data set [2], the “ΔOD @ SATURATION” value is 0.37, the “ΔOD/MIN SENSITIVITY” value was 0.14 ΔOD/MIN and the “Bleach Rate (T1/2)” value worked out at 2 min.

In the case of `COc1ccc(C2(c3ccc(OC)cc3)C=Cc3c(Cl)c(OC(C)=O)c4ccccc4c3O2)cc1` [Example 5, 2,2-bis(4-methoxyphenyl)-5-chloro-6-acetoxy-2H-naphtho[1,2-b]pyran], in data set [1], the “LAMBDA MAX (VISIBLE)” value is given as 462 nm. In data set [2], the “ΔOD @ SATURATION” value is recorded as 0.07, the “ΔOD/MIN SENSITIVITY” value is listed as 0.08 ΔOD/MIN and the “Bleach Rate (T1/2)” value was determined as 0.9 min.

`COc1ccc(C2(c3ccc(OC)cc3)C=Cc3c(C(O)(c4ccccc4)c4ccccc4)c(OC)c4ccccc4c3O2)cc1` [Example 11, 2,2-bis(4-methoxyphenyl)-5-diphenylmethylol-6-methoxy-[2H]-naphtho[1,2-b]pyran]: the “LAMBDA MAX (VISIBLE)” value in data set [1] stood at 467 nm. Besides, in data set [2], the “ΔOD @ SATURATION” value is 0.19, the “ΔOD/MIN SENSITIVITY” value is given as 0.10 ΔOD/MIN and the “Bleach Rate (T1/2)” value was found to be 1.42 min.
